Experimental data published in ChEMBL document CHEMBL4346705, “(±)-trans-Dihydronarciclasine and (±)-trans-dihydrolycoricidine analogues modified in their ring A: Evaluation of their anticancer activity and a SAR study” (2019).

Experiments:
Format in all cases: functional
K562 = experiment: Antiproliferative activity against human K562 cells assessed as cell viability at 10^-5 M incubated for 48 hrs by sulforhodamine B assay relative to control; settings: K562, 48 h, read-out: Activity
A549 = experiment: Antiproliferative activity against human A549 cells assessed as cell viability at 10^-5 M incubated for 48 hrs by sulforhodamine B assay relative to control; settings: A549, 48 h, read-out: Activity
HOP-92 = experiment: Antiproliferative activity against human HOP92 cells assessed as cell viability at 10^-5 M incubated for 48 hrs by sulforhodamine B assay relative to control; settings: HOP-92, 48 h, read-out: Activity
NCI-H23 = experiment: Antiproliferative activity against human NCI-H23 cells assessed as cell viability at 10^-5 M incubated for 48 hrs by sulforhodamine B assay relative to control; settings: NCI-H23, 48 h, read-out: Activity
NCI-H460 = experiment: Antiproliferative activity against human NCI-H460 cells assessed as cell viability at 10^-5 M incubated for 48 hrs by sulforhodamine B assay relative to control; settings: NCI-H460, 48 h, read-out: Activity
COLO 205 = experiment: Antiproliferative activity against human COLO205 cells assessed as cell viability at 10^-5 M incubated for 48 hrs by sulforhodamine B assay relative to control; settings: COLO 205, 48 h, read-out: Activity
HCT-116 = experiment: Antiproliferative activity against human HCT116 cells assessed as cell viability at 10^-5 M incubated for 48 hrs by sulforhodamine B assay relative to control; settings: HCT-116, 48 h, read-out: Activity
HCT-15 = experiment: Antiproliferative activity against human HCT15 cells assessed as cell viability at 10^-5 M incubated for 48 hrs by sulforhodamine B assay relative to control; settings: HCT-15, 48 h, read-out: Activity
HT-29 = experiment: Antiproliferative activity against human HT-29 cells assessed as cell viability at 10^-5 M incubated for 48 hrs by sulforhodamine B assay relative to control; settings: HT-29, 48 h, read-out: Activity
SNB-19 = experiment: Antiproliferative activity against human SNB19 cells assessed as cell viability at 10^-5 M incubated for 48 hrs by sulforhodamine B assay relative to control; settings: SNB-19, 48 h, read-out: Activity
U-251 = experiment: Antiproliferative activity against human U251 cells assessed as cell viability at 10^-5 M incubated for 48 hrs by sulforhodamine B assay relative to control; settings: U-251, 48 h, read-out: Activity
LOX IMVI = experiment: Antiproliferative activity against human LOXIMVI cells assessed as cell viability at 10^-5 M incubated for 48 hrs by sulforhodamine B assay relative to control; settings: read-out: Activity
Malme-3M = experiment: Antiproliferative activity against human MALME-3M cells assessed as cell viability at 10^-5 M incubated for 48 hrs by sulforhodamine B assay relative to control; settings: read-out: Activity
SK-MEL-5 = experiment: Antiproliferative activity against human SK-MEL-5 cells assessed as cell viability at 10^-5 M incubated for 48 hrs by sulforhodamine B assay relative to control; settings: SK-MEL-5, 48 h, read-out: Activity
UACC-257 = experiment: Antiproliferative activity against human UACC257 cells assessed as cell viability at 10^-5 M incubated for 48 hrs by sulforhodamine B assay relative to control; settings: UACC-257, 48 h, read-out: Activity
UACC-62 = experiment: Antiproliferative activity against human UACC62 cells assessed as cell viability at 10^-5 M incubated for 48 hrs by sulforhodamine B assay relative to control; settings: UACC-62, 48 h, read-out: Activity
OVCAR-4 = experiment: Antiproliferative activity against human OVCAR4 cells assessed as cell viability at 10^-5 M incubated for 48 hrs by sulforhodamine B assay relative to control; settings: OVCAR-4, 48 h, read-out: Activity
OVCAR-5 = experiment: Antiproliferative activity against human OVCAR5 cells assessed as cell viability at 10^-5 M incubated for 48 hrs by sulforhodamine B assay relative to control; settings: OVCAR-5, 48 h, read-out: Activity
SK-OV-3 = experiment: Antiproliferative activity against human SKOV3 cells assessed as cell viability at 10^-5 M incubated for 48 hrs by sulforhodamine B assay relative to control; settings: SK-OV-3, 48 h, read-out: Activity
786-0 = experiment: Antiproliferative activity against human 786-0 cells assessed as cell viability at 10^-5 M incubated for 48 hrs by sulforhodamine B assay relative to control; settings: 786-0, 48 h, read-out: Activity
A498 [1] = experiment: Antiproliferative activity against human A498 cells assessed as cell viability at 10^-5 M incubated for 48 hrs by sulforhodamine B assay relative to control; settings: A498, 48 h, read-out: Activity
CAKI-1 = experiment: Antiproliferative activity against human Caki1 cells assessed as cell viability at 10^-5 M incubated for 48 hrs by sulforhodamine B assay relative to control; settings: CAKI-1, 48 h, read-out: Activity
RXF 393 = experiment: Antiproliferative activity against human RXF393 cells assessed as cell viability at 10^-5 M incubated for 48 hrs by sulforhodamine B assay relative to control; settings: RXF 393, 48 h, read-out: Activity
MDA-MB-231 = experiment: Antiproliferative activity against human MDA-MB-231 cells assessed as cell viability at 10^-5 M incubated for 48 hrs by sulforhodamine B assay relative to control; settings: MDA-MB-231, 48 h, read-out: Activity
BT-549 = experiment: Antiproliferative activity against human BT549 cells assessed as cell viability at 10^-5 M incubated for 48 hrs by sulforhodamine B assay relative to control; settings: BT-549, 48 h, read-out: Activity
MDA-MB-468 [2] = experiment: Antiproliferative activity against human MDA-MB-468 cells assessed as cell viability at 10^-5 M incubated for 48 hrs by sulforhodamine B assay relative to control; settings: MDA-MB-468, 48 h, read-out: Activity
NCI-H226 = experiment: Cytotoxicity against human NCI-H226 cells assessed as growth inhibition after 48 hrs by sulforhodamine B assay; settings: NCI-H226, 48 h
KM12 = experiment: Cytotoxicity against human KM12 cells assessed as growth inhibition after 48 hrs by sulforhodamine B assay; settings: KM12, 48 h
A498 [3] = experiment: Cytotoxicity against human A498 cells assessed as growth inhibition after 48 hrs by sulforhodamine B assay; settings: A498, 48 h
MDA-MB-468 [4] = experiment: Cytotoxicity against human MDA-MB-468 cells assessed as growth inhibition after 48 hrs by sulforhodamine B assay; settings: MDA-MB-468, 48 h; for CC50: read-out: LC50 (the source's name)
SK-MEL-28 = experiment: Antiproliferative activity against human SK-MEL-28 cells assessed as cell viability at 10^-5 M incubated for 48 hrs by sulforhodamine B assay relative to control; settings: SK-MEL-28, 48 h, read-out: Activity

| Structure (SMILES) | viability at 10 µM (K562) [%] | viability at 10 µM (A549) [%] | viability at 10 µM (HOP-92) [%] | viability at 10 µM (NCI-H23) [%] | viability at 10 µM (NCI-H460) [%] | viability at 10 µM (COLO 205) [%] | viability at 10 µM (HCT-116) [%] | viability at 10 µM (HCT-15) [%] | viability at 10 µM (HT-29) [%] | viability at 10 µM (SNB-19) [%] | viability at 10 µM (U-251) [%] | viability at 10 µM (LOX IMVI) [%] | viability at 10 µM (Malme-3M) [%] | viability at 10 µM (SK-MEL-5) [%] | viability at 10 µM (UACC-257) [%] | viability at 10 µM (UACC-62) [%] | viability at 10 µM (OVCAR-4) [%] | viability at 10 µM (OVCAR-5) [%] | viability at 10 µM (SK-OV-3) [%] | viability at 10 µM (786-0) [%] | also measured |
| --- | --- | --- | --- | --- | --- | --- | --- | --- | --- | --- | --- | --- | --- | --- | --- | --- | --- | --- | --- | --- | --- |
| O=C1NC2C(CC(O)C(O)C2O)c2cc3c(c(O)c21)OCO3 (racemic) | 1.86 | -8.4 | -19 | -14.9 | -15.1 | -38.2 | -1.49 | 1.81 | -14.9 | -8.68 | -10.5 | -48.8 | -48.7 | -72.7 | -21.8 | -48.4 | -23.7 | -13.4 | -11.2 | -10.8 | viability at 10 µM (A498 [1]): -53.4%; viability at 10 µM (CAKI-1): -7.77%; viability at 10 µM (RXF 393): -37.3%; viability at 10 µM (MDA-MB-231): -27.9%; viability at 10 µM (BT-549): -12.5%; viability at 10 µM (MDA-MB-468 [2]): -45.8%; GI50 (NCI-H226): 61.7 nM; TGI (NCI-H226): 590 nM; GI50 (KM12): 44.5 nM; TGI (KM12): 320 nM; GI50 (A498 [3]): 200 nM; TGI (A498 [3]): 540 nM; GI50 (MDA-MB-468 [4]): 32 nM; TGI (MDA-MB-468 [4]): 190 nM; CC50 (MDA-MB-468 [4]): 6590 nM |
| O=C1NC2C(CC(O)C(O)C2O)c2cc3c(c(O)c21)OCCO3 (racemic) | 1.56 | -14.3 | -20.1 | -40.9 | 1.26 | -49 | -3.3 | -11.9 | -14.5 | -10.4 | -14.9 | -41.1 | -23.8 | -52.1 | -22.2 | -13.3 | -8.78 | 3 | -10.9 | -1.5 | viability at 10 µM (SK-MEL-28): -16.4%; viability at 10 µM (A498 [1]): -29.7%; viability at 10 µM (CAKI-1): 4.9%; viability at 10 µM (RXF 393): -24.2%; viability at 10 µM (MDA-MB-231): -24.1%; viability at 10 µM (BT-549): -17.5%; viability at 10 µM (MDA-MB-468 [2]): -27.2%; GI50 (NCI-H226): 220 nM; LC50 (NCI-H226): 79800 nM; TGI (NCI-H226): 730 nM; GI50 (KM12): 187 nM; LC50 (KM12): > 100000 nM; TGI (KM12): 1210 nM; GI50 (A498 [3]): 300 nM; LC50 (concentration killing 50% of cells) (A498 [3]): 6860 nM; TGI (A498 [3]): 1170 nM; GI50 (MDA-MB-468 [4]): 68.1 nM; TGI (MDA-MB-468 [4]): 360 nM; CC50 (MDA-MB-468 [4]): 2780 nM |
